These results are taken from ChEMBL document CHEMBL3886567, “Fused tricyclic compounds as Raf kinase inhibitors” (2016).

For experiment [1], the target named is Serine/threonine-protein kinase B-raf (Homo sapiens, UniProt P15056, V600E). As to the kind of experiment: (§1) Raf IC50 Assay: Compounds disclosed herein were tested against B-Raf (V600E) (PV3849, from Invitrogen) or C-Raf (Y340D/Y341D) (PV3805, from Invitrogen) in a time-resolved fluorescence energy transfer assay. The assay was carried out in reactions (10 uL) containing 0.0625 nM B-Raf or 0.5 nM C-Raf, 25 mM Tris pH7.4, 10 mM MgCl2, 0.5 mM EGTA, 0.5 mM […], 5 mM beta-glycerophosphate, 0.01% Triton X-100, 2.5 mM DTT, 0.1% BSA, 0.1 mM ATP, 13.7 nM GST-tagged MEK1 (Full-length protein with K97R mutation, recombinant protein purified from bacterial expression system) and 0-5 uM compounds disclosed herein (final concentration of 1% DMSO). The enzyme was incubated with the compounds at room temperature for 60 minutes and the reactions were initiated by the addition of ATP and GST-MEK1. After incubating at room temperature for 60 minutes, an equal volume of stop buffer containing 25 mM Tris pH7.4, 400 mM KF, 50 mM EDTA, 0.01% BSA, 0.01% Triton X-100, 1 test of Eu3+ Cryptate-conjugated rabbit polyclonal antibody anti-Phospho MEK1/2 (Ser217/221) and 1 test of d2-conjugated mouse monoclonal antibody anti-glutathione S-transferase was added to stop the reactions. Plates were sealed and incubated at room temperature for 2 hours, and then the TR-FRET signals were read on BMG PHERAstar FS instrument. The IC50 for each compound was calculated by non linear regression by Graphpad Prism software.
Chain of Serine/threonine-protein kinase B-raf (P15056 2-766 V600E limits assumed): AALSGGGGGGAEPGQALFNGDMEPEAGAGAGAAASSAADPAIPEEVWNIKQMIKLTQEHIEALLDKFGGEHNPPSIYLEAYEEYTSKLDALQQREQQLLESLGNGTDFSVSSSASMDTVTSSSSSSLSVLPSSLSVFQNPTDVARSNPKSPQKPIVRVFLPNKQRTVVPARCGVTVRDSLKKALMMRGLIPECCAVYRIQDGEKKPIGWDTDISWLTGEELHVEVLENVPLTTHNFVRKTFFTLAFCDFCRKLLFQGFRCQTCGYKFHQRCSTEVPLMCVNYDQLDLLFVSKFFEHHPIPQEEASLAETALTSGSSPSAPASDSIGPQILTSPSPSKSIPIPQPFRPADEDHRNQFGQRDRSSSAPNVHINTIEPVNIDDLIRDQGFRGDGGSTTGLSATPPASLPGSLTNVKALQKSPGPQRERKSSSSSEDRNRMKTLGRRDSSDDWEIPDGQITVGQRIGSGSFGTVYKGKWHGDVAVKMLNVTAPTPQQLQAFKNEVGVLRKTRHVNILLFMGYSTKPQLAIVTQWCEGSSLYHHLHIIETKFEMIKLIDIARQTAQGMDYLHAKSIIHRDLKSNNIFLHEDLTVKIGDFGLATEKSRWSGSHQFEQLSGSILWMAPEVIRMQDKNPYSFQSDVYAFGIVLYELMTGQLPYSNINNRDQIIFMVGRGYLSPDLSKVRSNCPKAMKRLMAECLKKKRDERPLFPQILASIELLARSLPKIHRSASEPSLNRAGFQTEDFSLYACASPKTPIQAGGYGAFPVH

Experiment [2] addresses RAF proto-oncogene serine/threonine-protein kinase (Homo sapiens, UniProt P04049, Y340D/Y341D). The description is as §1.

Chain of RAF proto-oncogene serine/threonine-protein kinase (P04049 whole entry Y340D/Y341D): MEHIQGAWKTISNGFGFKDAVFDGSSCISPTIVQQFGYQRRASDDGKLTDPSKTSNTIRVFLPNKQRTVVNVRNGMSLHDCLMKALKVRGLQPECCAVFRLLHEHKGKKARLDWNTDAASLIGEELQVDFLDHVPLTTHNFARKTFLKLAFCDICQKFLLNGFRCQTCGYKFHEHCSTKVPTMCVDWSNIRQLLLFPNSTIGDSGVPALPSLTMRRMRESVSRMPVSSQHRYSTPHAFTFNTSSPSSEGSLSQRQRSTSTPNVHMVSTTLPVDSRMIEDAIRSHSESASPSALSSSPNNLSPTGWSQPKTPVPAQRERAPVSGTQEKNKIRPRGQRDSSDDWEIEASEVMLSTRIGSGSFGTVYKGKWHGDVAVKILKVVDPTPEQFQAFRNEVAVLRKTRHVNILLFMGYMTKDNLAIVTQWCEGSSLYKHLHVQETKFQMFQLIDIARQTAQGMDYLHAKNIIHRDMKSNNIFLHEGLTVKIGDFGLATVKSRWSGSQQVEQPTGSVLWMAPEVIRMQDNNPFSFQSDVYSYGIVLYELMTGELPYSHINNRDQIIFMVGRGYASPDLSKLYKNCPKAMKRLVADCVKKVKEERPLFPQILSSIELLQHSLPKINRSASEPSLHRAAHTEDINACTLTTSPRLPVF

In general, IC50 refers to the midpoint of a concentration-inhibition curve. For the compound `O=C1CCc2c(Oc3ccc4c(c3)C3C(O4)C3c3nc4ccc(C(F)(F)F)cc4[nH]3)ccnc2N1` (racemic), the IC50 in experiment [1] is 7.2 nM; in experiment [2], 1.4 nM.

Consider `O=C1CCc2c(Oc3ccc4c(c3)C3C(O4)C3c3nc4ccc(-c5ccccc5)cc4[nH]3)ccnc2N1` (racemic), for which the IC50 in experiment [1] is 232 nM; in experiment [2], 81 nM. For `O=C1CCc2c(Oc3ccc4c(c3)C3C(C4)C3c3nc4ccc(C(F)(F)F)cc4[nH]3)ccnc2N1` (racemic), the IC50 in experiment [1] is 72 nM; in experiment [2] it was 12 nM.

With `O=C1CCc2c(Oc3ccc4c(c3)C3C(O4)C3c3nc4cccc(Cl)c4[nH]3)ccnc2N1` (racemic), the results for the IC50 in experiment [1] and in experiment [2] were 16 nM and below 0.25 nM, respectively.

For the compound `O=C1CCc2c(ncc(Cl)c2Oc2ccc3c(c2)C2C(O3)C2c2nc3ccc(C(F)(F)F)cc3[nH]2)N1` (racemic), the IC50 in experiment [1] was above 1000 nM; in experiment [2] it was 432 nM.

In the case of `O=C1CCc2c(Oc3ccc4c(c3)C3C(O4)C3c3nc4cc(Cl)c(C(F)(F)F)cc4[nH]3)ccnc2N1` (racemic), in experiment [2], the IC50 was 5 nM.
